Reference: US10975142B2, “Endotrophin neutralization and use thereof” (THE BOARD OF REGENTS OF THE UNIVERSITY OF TEXAS SYSTEM, priority 2013, dated 2021)

T1: ETP (Mus musculus, UniProt E9PWQ3)
T1 sequence (E9PWQ3 with tags, fused parts or gaps limits assumed): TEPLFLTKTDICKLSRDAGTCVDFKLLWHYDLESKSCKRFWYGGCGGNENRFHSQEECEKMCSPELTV

B1: 10B6: rat anti-mouse endotrophin monoclonal antibody; light chain variable SEQ ID NO: 2, heavy chain variable SEQ ID NO: 4 (antibody, V domains shown)
VH: QVQLQQSGPELAKPGSSVKISCKASGYTFTSYEMHWIKQRPGQGLEWIGYIYPESGSTGYNEKFKGKATLTVDKSSPTAYMQLSSLTPDNSAVYFCTRGLRVLGYVMDVWGHGTSVTVSS
VL: DVQLTQSPSFLSASVGDRVTINCKASQNINKYLNWYQQKLGEAPKRLIYNTNNLQTGIPSRFSGSASGTDYTLTISSLHPEDFATYFCLQHSSLYTFGAGTKLELK

Assays:
[1] = system: PyMT mice; experiment: high dosage cisplatin in PyMT mice; format: in vivo, mouse; details: cisplatin 2.5 mg/kg, ip. twice a week
Protocol: FIGS. 20A-20C. Endotrophin overexpression confers cisplatin resistance in PyMT mice. FIG. 20A. 10-weeks-aged PyMT and PyMT/endotrophin (PyMT/ETP) mice were given high dosage of cisplatin (2.5 mg/kg, ip., 2 times/week). Tumor growth was determined by caliper measurements. Data represent mean±SD (n=7-10/group). ***p<0.001, PyMT/CIS vs. PyMT/ETP/CIS by 2-way ANOVA. FIGS. 20B-20C. A piece of tumors taken from PyMT (Ctrl-tumor) and PyMT/endotrophin (ETP^+-tumor) mice were implanted into isogenic wild-type hosts. Cisplatin (1 mg/kg, ip., 2 times/week) were injected at 3-weeks post implantation for tumor progression. Tumor volume was determined by caliper measurement. […] Data represent mean±SD (n=7-8/group). *p<0.05 vs. Ctrl-tumors by 2-way ANOVA. Representative images were taken at 70-days post implantation. Scale: 10 mm.

[2] = target: T1, ETP; experiment: in vivo Matrigel bioassay (stromal cell recruitment into plugs); details: ETP 100 ng/plug, antibody 20 μg/plug, 2 days after implantation
Protocol: FIGS. 7A-7I: ETP acts as a chemokine augmenting tumor growth. […] Tumor volume was determined 1 month after implantation (representative images). Data represent mean±SEM (n=5 per group). ***P<0.001, unpaired t test. (FIG. 7B) In vivo Matrigel bioassay. Matrigel (50 μl) was mixed with ETP (100 ng/plug) or PBS and implanted into WT mice in the presence of IgG, 1D11, or 10B6 (20 μg/plug). 2 days after implantation, plugs were excised and stained for FIG. 7H & FIG. 7E. Scale bars: 100 μm. (FIGS. 7C-7H) Cancer cells were plated in the bottom chamber 1 day prior to seeding MS-1 cells (5×10^5 cells/well) and macrophages (1×10^5 cells/well) atop the membrane chamber in Transwell and incubated for 18-24 hours (FIG. 7C). (FIGS. 7D, 7E, 7F, 7G) Representative images of multiple independent experiments. Scale bars: 100 μm. (FIG. 7H) Quantitation (mean±SEM; n=3 per group). ***P<0.001, […], unpaired t test. (FIG. 7I) MS-1 migration assay. MS-1 cells (5×10^5 cells/well) were plated atop the chamber in Transwell and incubated for 24 hours. Chemotaxis was set up by following cell migration from DMEM/serum-free to DMEM/2% FBS/PBS or DMEM/2% FBS/ETP protein (1 μg/well). Images are representative of multiple independent experiments. Data represent mean±SEM (n=3 per group). ***P=0.008, unpaired t test. Scale bars: 100 μm.

| Molecule | primary tumor growth of PyMT mice [1] | chemokine activity of ETP (stromal cell recruitment into Matrigel plugs) [2] |
| --- | --- | --- |
| N.N.[Cl][Pt][Cl] [cisplatin, cis-diammine-dichloro-platinum] | effectively curbed |  |
| B1 |  | completely blocked |
